The target of the experiment is T1, USP28 (USP28-5(1-1077)-TEV-6*His; LifeSensors) (Homo sapiens, UniProt Q96RU2).
T1 construct: construct USP28 (USP28-5(1-1077)-TEV-6*His; LifeSensors); TEV cleavage site (C); 6xHis (C); purchased LifeSensors
T1 sequence (Q96RU2 1-1077): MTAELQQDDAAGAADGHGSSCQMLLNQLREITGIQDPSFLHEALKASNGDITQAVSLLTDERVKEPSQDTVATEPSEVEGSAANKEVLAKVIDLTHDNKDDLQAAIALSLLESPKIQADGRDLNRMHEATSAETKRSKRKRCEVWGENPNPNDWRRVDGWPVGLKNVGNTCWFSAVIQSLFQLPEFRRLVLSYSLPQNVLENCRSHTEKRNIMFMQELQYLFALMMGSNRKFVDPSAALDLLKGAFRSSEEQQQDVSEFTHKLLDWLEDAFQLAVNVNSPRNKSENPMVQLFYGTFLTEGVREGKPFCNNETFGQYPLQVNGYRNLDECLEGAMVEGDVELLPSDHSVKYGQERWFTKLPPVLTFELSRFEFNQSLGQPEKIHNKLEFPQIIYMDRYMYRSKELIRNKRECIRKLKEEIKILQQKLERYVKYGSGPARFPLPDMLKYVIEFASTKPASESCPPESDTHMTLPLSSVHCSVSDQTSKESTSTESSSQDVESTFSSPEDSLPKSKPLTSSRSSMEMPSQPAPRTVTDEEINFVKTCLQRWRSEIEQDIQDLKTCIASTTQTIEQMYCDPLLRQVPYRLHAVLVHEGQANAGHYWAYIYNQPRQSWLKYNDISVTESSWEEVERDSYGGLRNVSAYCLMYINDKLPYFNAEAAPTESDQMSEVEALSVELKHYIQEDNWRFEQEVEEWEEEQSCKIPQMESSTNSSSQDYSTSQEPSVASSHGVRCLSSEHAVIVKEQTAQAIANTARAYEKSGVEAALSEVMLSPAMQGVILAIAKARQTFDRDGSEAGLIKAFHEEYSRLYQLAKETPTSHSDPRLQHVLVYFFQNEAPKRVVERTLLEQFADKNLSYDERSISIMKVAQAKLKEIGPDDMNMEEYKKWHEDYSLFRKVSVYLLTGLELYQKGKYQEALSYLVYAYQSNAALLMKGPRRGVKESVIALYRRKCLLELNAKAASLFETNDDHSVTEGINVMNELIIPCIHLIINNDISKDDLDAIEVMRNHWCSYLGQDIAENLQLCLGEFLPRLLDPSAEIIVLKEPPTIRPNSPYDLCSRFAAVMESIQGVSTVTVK
The experiment can be described thus: Ubiquitin-Rhodamine 110 Assay for USP28 Activity, Example A-1(b). The format is biochemical. To be noted: Ub-Rh110 assay, Example A-1(b). The method, then:
Example A-1(b): Biochemical Assay: Ubiquitin-Rhodamine 110 Assay for USP28 Activity
Each assay was performed in a final volume of 20 μL in assay buffer containing 20 mM Tris-HCl (pH 8.0, (1M Tris-HCl, pH 8.0 solution; Corning 46-031-CM)), 2 mM CaCl2) (1M Calcium Chloride solution; Sigma #21114) 2 mM BME (2-Mercaptoethanol; Sigma 63689-25ML-F), 0.01% Prionex ([…] filtered, Sigma #G-0411), and 0.01% Triton X-100. Stock compound solutions were stored at −20° C. as 10 mM in DMSO. Up to 1 month prior to the assay, 2 mM test compounds were pre-dispensed into assay plates (Black, low volume; Corning #3820) and frozen at −20° C. Prestamped assay plates were allowed to come to room temperature on the day of the assay. For the screen, 100 nL of 2 mM was pre-dispensed for a final screening concentration of 10 μM (DMSO(fc)=0.5%). […] Plates were incubated stacked for 90 minutes at room temperature before fluorescence was read on the Envision (Excitation at 485 nm and Emission at 535 nm; Perkin Elmer) or on the PheraSTAR (Excitation at 485 nm and Emission at 535 nm; BMG Labtech).
For follow-up studies, each assay was performed in a final volume of 15 μL in assay buffer containing 20 mM Tris-HCl (pH 8.0, (1M Tris-HCl, pH 8.0 solution; Corning 46-031-CM)), 3 mM BME (2-Mercaptoethanol; Sigma 63689-25ML-F), 0.03% BGG (0.22 μM filtered, Sigma, G7516-25G), and 0.01% Triton X-100 (Sigma, T9284-10L). Nanoliter quantities of either an 8-point or 10-point, 3-fold serial dilution in DMSO was pre-dispensed into assay plates (Perkin Elmer, ProxiPlate-384 F Plus, #) for a final test concentration of either 25 μM to 11 nM or 25 μM to 1.3 nM, respectively. Enzyme USP28, construct USP28 (USP28-5(1-1077)-TEV-6*His; LifeSensors) concentration and incubation times were optimized for the maximal signal-to-background while maintaining initial velocity conditions at a fixed substrate concentration. The final concentration of the enzyme in the assay was 75 pM. Final substrate (Ub-Rh110; Ubiquitin-Rhodamine 110, R&D Systems #U-555) concentration was 25 nM with [Ub-Rh110]<<Km. 5 μL of 2× enzyme was added to assay plates (pre-stamped with compound) preincubated with USP28 for 30 minutes and then 5 μL of 2×Ub-Rh110 was added to assay plates. Plates were incubated stacked for 20 minutes at room temperature before 5 μL of stop solution was added (final concentration of 10 mM citric acid (Sigma, 251275-500G)). Fluorescence was read on the Envision (Excitation at 485 nm and Emission at 535 nm; Perkin Elmer) or on the PheraSTAR (Excitation at 485 nm and Emission at 535 nm; BMG Labtech).
For assay formats Example A-1(a), A-1(b), and A-2, data were reported as percent inhibition compared with control wells based on the following equation: % inh=1−((FLU−AveLow)/(AveHigh−AveLow)) where FLU=measured Fluorescence, AveLow=average Fluorescence of no enzyme control (n=16), and AveHigh=average Fluorescence of DMSO control (n=16). IC50 values were determined by curve fitting of the standard 4 parameter logistic fitting algorithm included in the Activity Base software package: IDBS XE Designer Model 205. Data is fitted using the Levenburg Marquardt algorithm.
`Cc1cnc2c(N)c(C(=O)N[C@H]3COc4cc(N5CC6COCC(C5)N6)ccc4C3)sc2n1` [Example 2-12, N-((3R)-7-(3-oxa-7,9-diazabicyclo[3.3.1]nonan-7-yl)chroman-3-yl)-7-amino-3-methylthieno[2,3-b]pyrazine-6-carboxamide]: the “USP28 A-1(b) IC50 range” value was “++ (0.2-2 μM)”.
To `CCn1ccc2cc(C(=O)N[C@@H]3COc4cc(N5CC6CCC(C5)N6)ccc4C3)cnc21` (single isomer, unassigned) [Example 1-27] belongs “+ (>2 μM)”.
Regarding `Cc1nc2sc(C(=O)N[C@H]3COc4cc(N5CCNCC5)cc(F)c4C3)c(N)c2s1` (single isomer, unassigned) [Example 1-37], the “USP28 A-1(b) IC50 range” value is given as “+ (>2 μM)”.
With `Cc1ccc2c(N)c(C(=O)N[C@@H]3COc4c(ccc(N5CCNCC5)c4F)C3)sc2n1` [Example 1-34, (S)-3-amino-N-(8-fluoro-7-(piperazin-1-yl)chroman-3-yl)-6-methylthieno[2,3-b]pyridine-2-carboxamide], the “USP28 A-1(b) IC50 range” value is recorded as “+ (>2 μM)”.
To `Cc1nc2sc(C(=O)N[C@@H]3COc4cc(N5CC6CCC(C5)N6)ccc4C3)c(N)c2s1` [Example 1-24, N-((3S)-7-(3,8-diazabicyclo[3.2.1]octan-3-yl)chroman-3-yl)-6-amino-2-methylthieno[2,3-d]thiazole-5-carboxamide] belongs “+ (>2 μM)”; to `Cc1ccc2c(N)c(C(=O)N[C@H]3COc4cc(N5CC6CNCC(C5)C6(F)F)ccc4C3)sc2n1` [Example 2-1, 3-Amino-N-((3R)-7-(9,9-difluoro-3,7-diazabicyclo[3.3.1]nonan-3-yl)chroman-3-yl)-6-methylthieno[2,3-b]pyridine-2-carboxamide], “++++ (0.001-0.05 μM)”.
Consider `Cc1ccc2c(N)c(C(=O)N[C@H]3COc4cc(N5CCNCC5)c(OC(F)(F)F)cc4C3)sc2n1` (single isomer, unassigned) [Example 1-31], for which the “USP28 A-1(b) IC50 range” value is “+ (>2 μM)”.
Take `Cc1ccc2c(N)c(C(=O)N[C@@H]3COc4cc(N5CCNCC5)c(F)cc4C3)sc2n1` [Example 1-36, (S)-3-amino-N-(6-fluoro-7-(piperazin-1-yl)chroman-3-yl)-6-methylthieno[2,3-b]pyridine-2-carboxamide]: the “USP28 A-1(b) IC50 range” value is “+ (>2 μM)”.
Turning to `Cc1nc2sc(C(=O)N[C@@H]3COc4cc(N5CC6CCC(C5)N6)cc(F)c4C3)c(N)c2s1` (single isomer, unassigned) [Example 1-40], the “USP28 A-1(b) IC50 range” value is recorded as “+ (>2 μM)”.
To `Cc1ccc2c(N)c(C(=O)N[C@H]3COc4cc(N5CCN[C@H](C)[C@H]5C)ccc4C3)sc2n1` (single isomer, unassigned) [Example 1-11] belongs “++++ (0.001-0.05 μM)”.
Regarding `Cc1ccc2c(N)c(C(=O)N[C@H]3COc4cc(N5CCCC56CNC6)ccc4C3)sc2n1` [Example 2-7, (R)-N-(7-(2,5-diazaspiro[3.4]octan-5-yl)chroman-3-yl)-3-amino-6-methylthieno[2,3-b]pyridine-2-carboxamide], the “USP28 A-1(b) IC50 range” value was “+++ (0.05-0.2 μM)”.
To `Cc1ccc2c(N)c(C(=O)N[C@H]3COc4cc(N5C6CCC5CNC6)ccc4C3)sc2n1` [Example 2-6, N-((3R)-7-(3,8-diazabicyclo[3.2.1]octan-8-yl)chroman-3-yl)-3-amino-6-methylthieno[2,3-b]pyridine-2-carboxamide] belongs “+++ (0.05-0.2 μM)”.
To `O=C(N[C@H]1COc2cc(N3CC4CCC(C3)N4)ccc2C1)c1ccc(NCc2ccccc2)nc1` [Example 2-25, N-((3R)-7-(3,8-diazabicyclo[3.2.1]octan-3-yl)chroman-3-yl)-6-(benzylamino)nicotinamide] belongs “++ (0.2-2 μM)”; to `Cc1ccc2c(N)c(C(=O)N[C@H]3COc4cc(N5CCN[C@H](C)[C@@H]5C)ccc4C3)sc2n1` (single isomer, unassigned) [Example 1-9], “++ (0.2-2 μM)”; to `Cc1nc2sc(C(=O)N[C@@H]3COc4cc(N5CCNCC5)ccc4C3)c(N)c2s1` [Example 1-26, (S)-6-amino-2-methyl-N-(7-(piperazin-1-yl)chroman-3-yl)thieno[2,3-d]thiazole-5-carboxamide], “+ (>2 μM)”.
Turning to `Cc1ccc2c(N)c(C(=O)N[C@@H]3COc4cc(N5CCNCC5)ccc4C3)sc2n1` (single isomer, unassigned) [Example 1-2], the “USP28 A-1(b) IC50 range” value is “+ (>2 μM)”.
The entry for `Cc1cc(C)c2c(N)c(C(=O)N[C@H]3COc4cc(N5CCNCC5)ccc4C3)sc2n1` [Example 2-17, (R)-3-amino-4,6-dimethyl-N-(7-(piperazin-1-yl)chroman-3-yl)thieno[2,3-b]pyridine-2-carboxamide] is “+++ (0.05-0.2 μM)”; for `Cc1cnc2c(N)c(C(=O)N[C@@H]3CCc4cc(N5CCNCC5)c(C)cc4C3)sc2n1` (single isomer, unassigned) [Example 2-35] it is “+ (>2 μM)”; for `Cc1nc2sc(C(=O)N[C@@H]3COc4cc(N5CCNCC5)ccc4C3)c(N)c2cc1F` (single isomer, unassigned) [Example 1-16] it is “+ (>2 μM)”.
For `Cc1nc2sc(C(=O)N[C@@H]3COc4cc(N5CCNCC5)cc(F)c4C3)c(N)c2s1` (single isomer, unassigned) [Example 1-38], the “USP28 A-1(b) IC50 range” value is reported as “++ (0.2-2 μM)”.
To `Cc1nc2sc(C(=O)N[C@H]3COc4cc(N5CC6CCCC(C5)N6)ccc4C3)c(N)c2s1` [Example 2-27] belongs “++ (0.2-2 μM)”.
With `Cc1ccc2c(N)c(C(=O)N[C@@H]3COc4cc(N5CC6CCC(C5)N6)cc(F)c4C3)sc2n1` (single isomer, unassigned) [Example 1-30], the “USP28 A-1(b) IC50 range” value is listed as “+ (>2 μM)”.
Turning to `Cc1nc2sc(C(=O)N[C@H]3COc4cc(N5CC6CCC(C5)N6)cc(F)c4C3)c(N)c2s1` (single isomer, unassigned) [Example 1-39], the “USP28 A-1(b) IC50 range” value is recorded as “++ (0.2-2 μM)”.

The record behind these values is patent US11524966B1 (Valo Early Discovery, Inc., priority 2017, dated 2022).
